The text below walks through data of ChEMBL document CHEMBL5579871, “Novel Papain-Like Protease Inhibitors for Treating Viral Infections, in particular, Coronavirus Infections” (ACS Med Chem Lett, 2024).

SMILES strings stand for the structures.

The assay has as its target Replicase polyprotein 1ab (Severe acute respiratory syndrome coronavirus 2, UniProt P0DTD1). In words: Inhibition of SARS-CoV-2 papain-like protease using Z-RLRGG-AMC as fluorogenic substrate preincubated for 30 mins followed by substrate addition and measured after 60 mins by plate reader assay.
For `Cc1ccc(N2CCNCC2)cc1C(=O)N[C@H](C)c1cc(-c2cnn(C)c2)cc(-c2cc(Cl)cnc2N)c1`, the half-maximal inhibitory concentration (IC50) stood at 4 nM.
The compound `Cc1ccc(NC(=O)[C@H]2CCCCN2)cc1C(=O)N[C@H](C)c1cc(-c2cnn(C)c2)cc(-c2cccs2)c1` had an IC50 of 4 nM.
To `Cc1ccc(N2CCN(C)CC2)cc1C(=O)N[C@H](C)c1cc(-c2cnn(C)c2)cc(-c2cccs2)c1` belongs 4 nM; to `Cc1cc(C(=O)NCc2cscn2)ccc1C(=O)N[C@H](C)c1cc(-c2cnn(C)c2)cc(-c2ccns2)c1`, 3 nM.
Compound `Cc1cc(CNCc2cscn2)ccc1C(=O)N[C@H](C)c1cc(-c2cnn(C)c2)cc(-c2ccns2)c1` yielded an IC50 of 3 nM.
Take `Cc1ccc(N2CCN(C)CC2)cc1C(=O)N[C@H](C)c1cc(-c2cnn(C)c2)cc(-c2cc(Cl)cnc2N)c1`: 3 nM corresponded to half-maximal inhibition (IC50).
